The values that follow come from PubChem BioAssay AID248 (DTP/NCI, 2004).

For this experiment, the system named is L1210 leukemia ip in BDF1 mice, survival T/C. Nature of the experiment: NCI In Vivo Anticancer Drug Screen. Data for tumor model L1210 Leukemia (intraperitoneal) in B6D2F1 (BDF1) mice. The note with it: endpoint: mean survival time, higher = longer survival. The essentials: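 Transplanted-tumor mice were given test agent; controls received vehicle only. Survival readings from the two groups were divided (treated over control).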

[1] abbreviates: dose: 50.0 mg/kg/injection, schedule: Q01DX009 (ip), vehicle: Klucel (hydroxypropylcellulose) (HPC).
Where [2] appears, read: dose: 100.0 mg/kg/injection, schedule: Q01DX009 (ip), vehicle: Klucel (hydroxypropylcellulose) (HPC).
Setting [3] is: dose: 200.0 mg/kg/injection, schedule: Q01DX009 (ip), vehicle: Klucel (hydroxypropylcellulose) (HPC).
Where [4] appears, read: dose: 400.0 mg/kg/injection, schedule: Q01DX009 (ip), vehicle: Klucel (hydroxypropylcellulose) (HPC).
[5] abbreviates: dose: 150.0 mg/kg/injection, schedule: Q01DX001 (ip), vehicle: saline.
Setting [6] is: dose: 100.0 mg/kg/injection, schedule: Q04DX003 (ip), vehicle: Klucel (hydroxypropylcellulose) (HPC).
Setting [7] is: dose: 200.0 mg/kg/injection, schedule: Q04DX003 (ip), vehicle: Klucel (hydroxypropylcellulose) (HPC).
Where [8] appears, read: dose: 50.0 mg/kg/injection, schedule: Q01DX009 (ip), vehicle: saline.
Setting [9] is: dose: 100.0 mg/kg/injection, schedule: Q01DX001 (ip), vehicle: saline.
The mark [10] stands for this setting: dose: 100.0 mg/kg/injection, schedule: Q01DX009 (ip), vehicle: saline.
[11] abbreviates: dose: 400.0 mg/kg/injection, schedule: Q04DX003 (ip), vehicle: Klucel (hydroxypropylcellulose) (HPC).
The mark [12] stands for this setting: dose: 200.0 mg/kg/injection, schedule: Q01DX009 (ip), vehicle: saline.

Several values for one entry are separate records, joined by “and”; a condition that tells them apart may be missing. Equal values may be shown once. Inconclusive results and toxic doses are left out.

Consider `CSC(=S)NNC(=O)c1cccc([N+](=O)[O-])c1`, for which the T/C was 95 % of control (dose: 6.25 mg/kg/injection, schedule: Q04DX003 (ip), vehicle: saline sonified); 100 % of control (dose: 12.5 mg/kg/injection, schedule: Q04DX003 (ip), vehicle: saline sonified); 101 % of control (dose: 25.0 mg/kg/injection, schedule: Q04DX003 (ip), vehicle: saline sonified).

With `CCCCCP(=O)(CCCC)CCCCC`, the T/C is 89 % of control under setting [1] and 89 % of control under setting [2].

Take `Cc1cc2c(cc1C)/C(=N/O)CCC2`: the T/C under setting [2] is 100 % of control, the T/C under setting [3] was 101 % of control and the T/C under setting [4] was 101 % of control.

In the case of `O=C(NO)N/N=C/C=N/NC(=O)NO`, the T/C by setting is: (dose: 75.0 mg/kg/injection, schedule: Q01DX001 (ip), vehicle: saline) 100 % of control; under setting [5], 100 % of control; (dose: 300.0 mg/kg/injection, schedule: Q01DX001 (ip), vehicle: saline) 107 % of control.

Regarding `CCCCCCCCCCCCCCCCCC(=O)[O][Pb]([CH3])([CH3])[CH3]`, the T/C (dose: 25.0 mg/kg/injection, schedule: Q04DX002 (ip), vehicle: Klucel (hydroxypropylcellulose) (HPC)) was 97 % of control.

Consider `O=NN(CCCl)C(=O)NC1Cc2ccccc2C1`, for which the T/C reads like this: (dose: 8.0 mg/kg/injection, schedule: Q01DX001 (ip), vehicle: other) 109 % of control; (dose: 62.0 mg/kg/injection, schedule: Q01DX001 (ip), vehicle: other) 239 % of control; (dose: 125.0 mg/kg/injection, schedule: Q01DX001 (ip), vehicle: other) 264 % of control; (dose: 250.0 mg/kg/injection, schedule: Q01DX001 (ip), vehicle: other) 112 % of control; (dose: 500.0 mg/kg/injection, schedule: Q01DX001 (ip), vehicle: other) 86 % of control.

Consider `O=C(NCCCl)NN1CCCCC1`, for which the T/C is, setting by setting: (dose: 50.0 mg/kg/injection, schedule: Q04DX003 (ip), vehicle: Klucel (hydroxypropylcellulose) (HPC)) 113 % of control; under setting [6], 113 % of control; under setting [7], 113 % of control.

In the case of `COC1=C(Br)[C@H](O)[C@](O)(CC#N)C=C1Br`, the T/C is, setting by setting: (dose: 12.5 mg/kg/injection, schedule: Q01DX009 (ip), vehicle: saline) 97 % of control; (dose: 25.0 mg/kg/injection, schedule: Q01DX001 (ip), vehicle: Klucel (hydroxypropylcellulose) (HPC)) 97 % of control; (dose: 25.0 mg/kg/injection, schedule: Q01DX009 (ip), vehicle: Klucel (hydroxypropylcellulose) (HPC)) 101 % of control; (dose: 25.0 mg/kg/injection, schedule: Q01DX009 (ip), vehicle: saline) 110 % of control; (dose: 44.0 mg/kg/injection, schedule: Q01DX001 (ip), vehicle: saline) 103 % of control; (dose: 50.0 mg/kg/injection, schedule: Q01DX001 (ip), vehicle: Klucel (hydroxypropylcellulose) (HPC)) 104 % of control. Moreover, the T/C runs as follows: under setting [1], 94 % of control; under setting [8], 107 % of control; (dose: 66.0 mg/kg/injection, schedule: Q01DX001 (ip), vehicle: saline) 106 % of control; under setting [9], 117 % of control and 229 % of control; under setting [2], 108 % of control; under setting [10], 91 % of control. Also, the T/C under setting [5] is 121 % of control.

On to `Nc1nc(-c2ccccc2N=NN2CCOCC2)nc2ccccc12`, for which the T/C reads like this: under setting [6], 101 % of control; under setting [7], 103 % of control; under setting [11], 101 % of control.

`N#CCCn1cnc2c(N)ncnc21`: the T/C was 96 % of control (dose: 100.0 mg/kg/injection, schedule: Q01DX009 (ip), vehicle: saline with Tween-80); 103 % of control (dose: 100.0 mg/kg/injection, schedule: Q04DX003 (ip), vehicle: saline with Tween-80); 96 % of control (dose: 200.0 mg/kg/injection, schedule: Q01DX009 (ip), vehicle: saline with Tween-80); 103 % of control (dose: 200.0 mg/kg/injection, schedule: Q04DX003 (ip), vehicle: saline with Tween-80); 91 % of control (dose: 400.0 mg/kg/injection, schedule: Q01DX009 (ip), vehicle: saline with Tween-80); 104 % of control (dose: 400.0 mg/kg/injection, schedule: Q04DX003 (ip), vehicle: saline with Tween-80).

Take `O=S(=O)(O)SCCN1CCCCCCC1`: under setting [10], the T/C is 95 % of control.

Consider `Nc1nc(N)c(-c2ccc(Cl)cc2)c(COc2cccc(NC(=O)c3ccc([N+](=O)[O-])cc3)c2)n1`, for which the T/C is 104 % of control (dose: 100.0 mg/kg/injection, schedule: Q01DX001 (ip), vehicle: Klucel (hydroxypropylcellulose) (HPC)); 97 % of control (dose: 200.0 mg/kg/injection, schedule: Q01DX001 (ip), vehicle: Klucel (hydroxypropylcellulose) (HPC)); 91 % of control (dose: 400.0 mg/kg/injection, schedule: Q01DX001 (ip), vehicle: Klucel (hydroxypropylcellulose) (HPC)).

In the case of `O=C(Nc1ccccc1Cl)Oc1ccccc1Cc1ccccc1`, the T/C under setting [2] was 96 % of control; the T/C under setting [6] is 107 % of control; the T/C under setting [3] was 93 % of control; the T/C under setting [7] was 90 % of control; the T/C under setting [4] was 115 % of control; the T/C under setting [11] was 93 % of control.

With `NNC(=O)Cc1ccc([N+](=O)[O-])cc1`, the T/C under setting [8] is 94 % of control; the T/C under setting [9] was 97 % of control; the T/C under setting [10] was 103 % of control; the T/C (dose: 200.0 mg/kg/injection, schedule: Q01DX001 (ip), vehicle: saline) is 94 % of control; the T/C under setting [12] was 105 % of control.

For `O=C(/C=C/c1ccccc1)NC12CC3CC(CC(C3)C1)C2`, the T/C is, setting by setting: (dose: 100.0 mg/kg/injection, schedule: Q04DX003 (ip), vehicle: saline) 91 % of control; (dose: 200.0 mg/kg/injection, schedule: Q04DX003 (ip), vehicle: saline) 93 % of control; (dose: 400.0 mg/kg/injection, schedule: Q04DX003 (ip), vehicle: saline) 100 % of control.

As to `Nc1cc(Cl)cc2c1-c1c(Cl)cc(Cl)cc1C2`, the T/C under setting [2] is 102 % of control; the T/C under setting [6] is 96 % of control; the T/C under setting [7] is 104 % of control; the T/C under setting [4] was 102 % of control; the T/C under setting [11] was 104 % of control.

Take `CC(C)(C)C1(C)CC1(Br)Br` (stereo not given): the T/C by setting is: under setting [8], 98 % of control; under setting [10], 101 % of control; under setting [12], 98 % of control.

Take `Cc1cc(OC(=O)Nc2ccc(F)cc2)c(C(C)C)cc1Cl`: the T/C was 90 % of control (dose: 50.0 mg/kg/injection, schedule: Q01DX001 (ip), vehicle: carboxymethylcellulose (CMC)); 99 % of control and 101 % of control (dose: 50.0 mg/kg/injection, schedule: Q01DX009 (ip), vehicle: carboxymethylcellulose (CMC)); 93 % of control and 96 % of control (dose: 50.0 mg/kg/injection, schedule: Q04DX002 (ip), vehicle: carboxymethylcellulose (CMC)); 103 % of control (dose: 100.0 mg/kg/injection, schedule: Q01DX001 (ip), vehicle: carboxymethylcellulose (CMC)); 96 % of control and 99 % of control (dose: 100.0 mg/kg/injection, schedule: Q01DX009 (ip), vehicle: carboxymethylcellulose (CMC)); 100 % of control and 106 % of control (dose: 100.0 mg/kg/injection, schedule: Q04DX002 (ip), vehicle: carboxymethylcellulose (CMC)). Moreover, the T/C is 92 % of control (dose: 200.0 mg/kg/injection, schedule: Q01DX001 (ip), vehicle: carboxymethylcellulose (CMC)); 94 % of control and 95 % of control (dose: 200.0 mg/kg/injection, schedule: Q01DX009 (ip), vehicle: carboxymethylcellulose (CMC)); 95 % of control and 100 % of control (dose: 200.0 mg/kg/injection, schedule: Q04DX002 (ip), vehicle: carboxymethylcellulose (CMC)).

Turning to `O=C(Oc1ccc(Cl)cc1Cl)c1ccc([N+](=O)[O-])cc1`, the T/C (dose: 100.0 mg/kg/injection, schedule: Q04DX002 (ip), vehicle: Klucel (hydroxypropylcellulose) (HPC)) is 93 % of control; the T/C (dose: 200.0 mg/kg/injection, schedule: Q04DX002 (ip), vehicle: Klucel (hydroxypropylcellulose) (HPC)) is 97 % of control; the T/C (dose: 400.0 mg/kg/injection, schedule: Q04DX002 (ip), vehicle: Klucel (hydroxypropylcellulose) (HPC)) is 87 % of control.
